Experimental data reported in patent US20250221936A1, “ENGINEERED HEMICHANNELS, ENGINEERED VESICLES, AND USES THEREOF” (VIRGINIA TECH INTELLECTUAL PROPERTIES, INC., priority 2018, published 2025).
Entries after “also recorded” stand apart in the source; their conditions may differ. Where two headings read alike, the source gives them in different places.

Columns and labels:
[1] = system: Neonatal cardiac fibroblasts (NHFs); test: Collagen synthesis by neonatal cardiac fibroblasts, Western blotting; format: cell-based, rat
Text: Isolation and treatment of Neonatal Cardiac Fibroblasts with Cx43 based peptides (peptides used included ACT1, JM1, JM2, Antennapedia [ANT], reverse ACT1 [Rev], poly Arginine [poly r]). Said peptides with and without internalization vectors can be loaded into the provided EVs and can elicit results similar to those observed for naked peptide as follows. Neonatal cardiac fibroblasts (NHFs) were isolated from 3-4 day old rat hearts by collagenase digestion (100 U/mL) and differential attachment as previously described (Borg et ah, 1984). All cells were maintained in Dulbecco's Modified Eagle Medium (DMEM) supplemented with 10% Fetal Bovine Serum and 100 U/mL penicillin G and 100 μg/mL streptomycin and used prior to passage four. For experiments, 40,000 NHFs were plated into the wells of a 24-well tissue culture plate and grown for 24-48 hours. On the day of treatment, media was removed from each well and replaced with fresh media containing 50 μg/mL L-ascorbic acid-2-phosphate; Sigma Chemical Co., St. Louis, MO). The appropriate volume of each peptide (resuspended in sterile, deionized 18 MQ resistivity water) was added to achieve the desired final concentration (30, 90, 180 µM peptide concentrations were tested). Culture plates were incubated overnight in a 37° C. incubator with 5% C02.
Protein Isolation and Examination of Collagen Synthesis by Western Blotting. Conditioned culture media was collected from each well and stored at −20° C. for analysis of soluble collagen. Cellular protein, including insoluble collagen and collagen still within the NHFs, were isolated by adding 100-200 μL, of cell lysis buffer (0.01 M Tris, pH 7.4, 0.001 M Sodium Orthovanadate, 1% sodium dodecylsulfate [SDS]) to each well and incubating 10 minutes at room temperature. Prior to addition, cell lysis buffer was warmed to facilitate solubilization of SDS and 100 u L of Halt protease inhibitor (Pierce Biotechnology, Rockford, IL) was added per 10 mL buffer to be used. After incubation, the well bottoms were scraped and liquid transferred to a microcentrifuge tube for storage at −20° C. Protein concentrations of cell lysates were determined using a Micro BCA assay (Pierce). SDS-PAGE samples were prepared by combining either 10 μg of cell lysate or 30 μL of conditioned media with XT loading buffer (BioRad, Hercules, CA), dithiothreitol and boiled for five minutes. Samples were loaded onto 3-8% Tris-Acetate Criterion X T gels (BioRad, Hercules, CA) and proteins separated at 140V. After electrophoresis, proteins were transferred onto […] nitrocellulose membranes (BioRad) overnight at room temperature (Transfer buffer: 25 mM Tris, 192 mM Glycine, 20% Methanol, 0.01% SDS). The presence of collagen was determined by probing the membranes with a rabbit anti-mouse collagen type I antibody (MD Biosciences) at 1:20,000 dilution in blocking buffer (5% milk in Tris-buffered saline) followed by a goat anti-rabbit IgG horseradish peroxidase conjugated antibody at 1:100,000 (Southern Biotech Associates) and detection with Pierce SuperSignal Femto West detection reagent (Pierce). To assess the activity of JM1 and JM2 peptides with respect to collagen production and their potential in mediating wound healing, cardiac fibroblasts were treated with these two peptides and their effectiveness compared to that for the previous described Cx43 peptide ACT1. NHFs were treated with various concentrations of JM1, JM2, ACT1, and ANT (Antennapedia) peptides, vehicle (water) or left untreated and the production of collagen both in the culture media and cell-associated collagen assessed by western blotting. […] To evaluate the impact of the poly-Arginine (poly-r)N-terminal sequence on JM1 and Jm2 activity, NHF cells were treated with a poly-r peptide.

implants = test: Inflammatory infiltrate at implants, myeloperoxidase stain; format: in vivo; conditions: 24 hour time point
Text: In attempting to quantify the neutrophil infiltrate using a myeloperoxidase stain, the inventors observed that some of the cells stained darker than others. Upon further investigation, these cells were not neutrophils as but rather were macrophages.

cryo-injured LV wall = conditions: cited from earlier work; for LV function: 8 week time course; for Cx43 in myocytes bordering the injury: mouse, in vivo; for arrhythmias: pacing and S1-S2 protocols
[2] = system: chronic, slow healing skin wounds; conditions: diabetic foot ulcers and venous leg ulcers; cited from earlier work

| Sequence | mature type I collagen in conditioned media ([1]; 30, 90, 180 µM) | type of inflammatory infiltrate (implants) | LV function (cryo-injured LV wall) | LV function (cryo-injured LV wall; listed as ACTI) | Cx43 in myocytes bordering the injury (cryo-injured LV wall) | Cx43 in myocytes bordering the injury (cryo-injured LV wall; listed as ACTI) | arrhythmias (cryo-injured LV wall) | arrhythmias (cryo-injured LV wall; listed as ACTI) | healing of skin wounds [2] | mature type I collagen in conditioned media ([1]; 180 μM) | collagen produced versus poly-r peptide ([1]; about 90 μM) | mature type I collagen in cell lysate ([1]; versus ACT1 peptide) |
| --- | --- | --- | --- | --- | --- | --- | --- | --- | --- | --- | --- | --- |
| RQPKIWFPNRRKPWKKRPRPDDLEI [alpha CT1] | dose-dependent reduction in the secretion of mature, fully processed collagen | the primary inflammatory infiltrate was macrophages | sustained improvements in ventricular contractile performance over an 8-week study period | significant improvement in LV diastolic and systolic function | reduced Cx43 GJ remodeling in injury border zone tissues | higher and more uniform, intercalated-disk-localized and pS368 phosphorylated Cx43 | decreased propensity of the injured hearts to develop inducible arrhythmias | dramatically reduced (p<0.05) frequency and severity of arrhythmias | high level of efficacy in promoting the healing of two types of chronic, slow healing skin wounds; also recorded: increased the healing rate of slow-healing skin wounds |  |  |  |
| VFFKGVKDRVKGRSD [JM2] | dose-dependent decrease in the production of mature, type I collagen |  |  |  |  |  |  |  |  | no mature type I collagen was detected | less than half of that produced by cells treated with the poly-r peptide | more profound reduction in the amount of mature type I collagen |
